Source: paper PMC4893628, “Chalcone-based Selective Inhibitors of a C4 Plant Key Enzyme as Novel Potential Herbicides” (Scientific Reports, 2016)
Where two headings read alike, the source gives them in different places.

Experiments:
[1] = target: T1, wild-type C4 PEPC from F. trinervia (Flaveria trinervia, UniProt P30694); assay: Isothermal titration calorimetry, wild-type C4 PEPC; type: binding
T1 construct: the full-length ppcA gene of PEPC from F. trinervia (EMBL-Bank X61304); made in house; host or cells: Escherichia coli BL21(DE3)
T1 sequence (P30694 1-966): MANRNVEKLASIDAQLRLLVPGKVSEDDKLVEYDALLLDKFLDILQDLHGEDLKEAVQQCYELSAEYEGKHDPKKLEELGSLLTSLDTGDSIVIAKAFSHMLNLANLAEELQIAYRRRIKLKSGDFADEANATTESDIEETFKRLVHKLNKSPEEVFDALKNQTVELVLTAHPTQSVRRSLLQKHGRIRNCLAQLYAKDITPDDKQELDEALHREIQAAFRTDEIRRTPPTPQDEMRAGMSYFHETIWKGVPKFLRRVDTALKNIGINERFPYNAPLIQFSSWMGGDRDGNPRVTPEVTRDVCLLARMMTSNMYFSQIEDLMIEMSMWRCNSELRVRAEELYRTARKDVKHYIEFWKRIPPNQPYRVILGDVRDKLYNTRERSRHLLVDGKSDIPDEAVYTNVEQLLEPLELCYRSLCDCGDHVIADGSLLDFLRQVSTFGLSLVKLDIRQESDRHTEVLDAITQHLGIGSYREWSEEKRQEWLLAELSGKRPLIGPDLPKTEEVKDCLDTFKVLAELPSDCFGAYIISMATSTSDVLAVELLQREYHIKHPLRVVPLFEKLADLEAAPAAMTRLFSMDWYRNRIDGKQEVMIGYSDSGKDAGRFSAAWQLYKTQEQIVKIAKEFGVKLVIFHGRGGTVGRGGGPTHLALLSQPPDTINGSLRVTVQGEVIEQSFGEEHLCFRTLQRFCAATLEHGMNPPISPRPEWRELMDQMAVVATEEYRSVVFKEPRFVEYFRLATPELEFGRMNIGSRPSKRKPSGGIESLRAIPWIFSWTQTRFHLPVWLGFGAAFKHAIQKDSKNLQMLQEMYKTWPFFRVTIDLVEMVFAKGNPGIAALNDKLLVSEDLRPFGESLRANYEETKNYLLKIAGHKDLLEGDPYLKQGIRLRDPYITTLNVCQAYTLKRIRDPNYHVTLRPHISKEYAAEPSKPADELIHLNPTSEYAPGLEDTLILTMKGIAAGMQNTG
Experimental: The binding affinities between small molecule compounds and PEPC enzymes were measured using a MicroCal iTC200 calorimeter (GE Healthcare). 18 injections (2 μl each) of 200 μM compound were injected into a sample cell containing 20 uM PEPC at 25 °C. The buffer of the compounds and the enzymes contained 50 mM Tris/HCl pH 7.5, 150 mM NaCl, 10 mM MgCl2. The data were analyzed with one-site-binding fitting using Origin software (MicroCal Inc.) to calculate the dissociation constant (Kd) of the small molecule inhibitors.

[2] = system: human breast cancer cells; design: method as in PMID 11720850; details: higher; cited from earlier work
B. napus [3] = assay: Chlorophyll fluorescence measurements, B. napus; type: in vivo, Brassica napus; details: 2 mM
A. retroflexus [4] = assay: Chlorophyll fluorescence measurements, A. retroflexus leaf discs; type: in vivo, Amaranthus retroflexus; details: 2 mM
Experimental: from a fixed distance at 90° view angle using the camera Canon EOS 70D equipped with a Canon EF 14 mm/2.8 L II USM lens. Leaf area of single leaves was measured using the ImageJ software31, by drawing the leaf contours using a drawing tablet (Cintiq 22HD, Wacom Europe GmbH, Krefeld, Germany). Conversion of pixel to cm was achieved by using a target of known size inside the image. Six days after the treatment, half of the plants were harvested. Leaf area was assessed using a leaf area meter (LI3100C Area Meter, LI-Cor, Lincoln, Nebraska, USA) and samples were oven-dried at 65°C for seven days to obtain dry weight . Thirteen days after the treatment, this procedure was repeated with the second half of plants.
Chlorophyll fluorescence measurements
For assessment of photosynthetic parameters, A. retroflexus plants were grown under the abovementioned conditions until the two-leaves growth stage. 6 mm leaf discs were cut out of the second leaf and immediately placed into 96-well-plates filled with 300 µL 0.125 % Hoagland’s solution with 1 mM MES-KOH (MES-monohydrate, Merck, Darmstadt, Germany) buffered to a pH of 6.5. The treatment solution contained 1.6 % (v/v) DMSO, 0.1 % (v/v) Tween® 20 and 2',3',4',3,4-Pentahydroxychalcone at a concentration of 2 mM. The control treatment contained 1.6 % (v/v) DMSO, 0.1 % (v/v) Tween® 20. Each leaf disc was treated with 1.5 µL solution placed on top of the leaf discs. Plates were sealed with Parafilm and placed into a climate cabinet with 12h/12h day/night-length and a temperature of 22°C at a light intensity of 130 µmol m-2 s-1. 96 hours after treatment, chlorophyll fluorescence measurements were performed on leaf discs using an Imaging PAM M-Series fluorescence camera (Heinz Walz GmbH, Effeltrich, Germany). Leaf discs were dark adapted for 30 minutes, minimum and maximum chlorophyll fluorescence were obtained and leaf discs were illuminated for 30 minutes

B. napus [5] = assay: Leaf gas exchange measurements, B. napus; type: in vivo, Brassica napus
Experimental: (§1) CO2-response curves were obtained on A. retroflexus and B. napus using a LI-6400XT portable photosynthesis system equipped with a fluorescence head and a leaf chamber size of 2 cm^2 (LI-COR, Lincoln, NE, USA) at a photon flux density of 1500 μmol m^−2 s^−1 and at 25 °C leaf temperature. Plants were grown at the research greenhouse of the IBG-2 Institute of Plant Sciences at Forschungszentrum Jülich, Germany (50°55′20″N 06°21′30″E), at a day/night length of 16 h/8 h, at an average day/night temperature of 23 °C/17 °C, relative humidity of 55%, and light intensity of 170 PAR. Plants were treated as described above at the three-leaf stage. Measurements were performed on the third leaf before treatment and one day after treatment. Each treatment was repeated four times. Information on statistical analysis is given in the Supplementary Information.

A. retroflexus [6] = assay: Leaf gas exchange measurements, A. retroflexus; type: in vivo, Amaranthus retroflexus
Experimental: as §1

[7] = estimate valid for both measurement days (before and one day after treatment)

Compound: O=C(/C=C/c1ccc(O)c(O)c1)c1ccc(O)cc1O [Compound 8, 2′,4′,3,4-Tetrahydroxy-chalcone]
- Kd [1]: 380 nM

Compound: O=C(/C=C/c1cc(O)c(O)c(O)c1)c1ccc(O)cc1O [Compound 9, 2′,4′,3,4,5-Pentahydroxychalcone]
- Kd ([1]; ITC, wild-type (wtFt), no aspartate, read-out: Kd): 460 nM

Compound: O=C(/C=C/c1ccccc1)c1ccc(O)c(O)c1O [Compound 10, 2′,3′,4′-Trihydroxychalcone]
- antiproliferative IC50 relative to IC50 for inhibition of C4 PEPC [2]: ~ 5 fold

Compound: O=C(/C=C/c1ccc(O)c(O)c1)c1ccc(O)c(O)c1O [Compound 12, 2′,3′,4′,3,4-Pentahydroxy-chalcone]
- Kd [1]: 260 nM
- weaker Kd at 0.5 mM aspartate in comparison to no aspartate ([1]; ITC): ~ 5 fold
- photosynthetic parameters (B. napus [3]): no effect
- effective quantum yield of photosystem II (A. retroflexus [4]): increased
- maximum electron transfer rate (A. retroflexus [4]): increased
- non-photochemical quenching (A. retroflexus [4]): reduced
- photosynthetic parameters (B. napus [5]; after treatment): no changes
- maximal electron transport rate (Jmax) (B. napus [5]; [7]): 144.2 (3.77)
- maximal rubisco carboxylation rate (Vcmax) (B. napus [5]; [7]): 81.5 (3.33)
- mitochondrial respiration (Rd) (B. napus [5]; [7]): 0.9 (0.66)
- Maximal PEP carboxylation rate (Vpmax) (A. retroflexus [6]; Before treatment): 36.5 μmol m^−2 s^−1
- Maximal PEP carboxylation rate (Vpmax) (A. retroflexus [6]; Before treatment, listed as Okanin): 36.5 (3.96) μmol m^−2 s^−1
- Maximal PEP carboxylation rate (Vpmax) (A. retroflexus [6]; One day after treatment): 17.2 μmol m^−2 s^−1
- Maximal PEP carboxylation rate (Vpmax) (A. retroflexus [6]; One day after treatment, listed as Okanin): 17.2 (2.43) μmol m^−2 s^−1
- decrease of Vpmax (A. retroflexus [6]; one day after treatment): more than 50%
